# Tested on: xenogeneic GI-101A solid breast carcinoma tumors
# Design: species or system nu-/nu-mice
# Conditions: in vivo
smiles,measurement,value
"Nc1nc2c(ncn2COC(CO)CO)c(=O)[nH]1 [PBS+GCV, gancyclovir]",Increase of average volume of tumors,91.8%

# Source: patent US10463730B2 (priority 2003, dated 2019)
